# Test results: patent US20250230193A1, “CYCLIC COMPOUND HAVING SELECTIVE KRAS INHIBITORY EFFECT ON HRAS AND NRAS” (CHUGAI SEIYAKU KABUSHIKI KAISHA, priority 2022, published 2025)
# Where a SMILES comes first, the peptide text is derived from it. Bridges are numbered along the chain shown (N, C = ends). [ ]: non-standard residue; d: D form. The star is where a group is joined. hPhe(3-Cl-4-CF3) = N[C@@H](CCc1ccc(C(F)(F)F)c(Cl)c1)C(=O)O; NPrPhe(4-CF3) = CCCN[C@@H](Cc1ccc(C(F)(F)F)cc1)C(=O)O; NMeGly(cPent) = CN[C@H](C(=O)O)C1CCCC1; NMeD = CN[C@@H](CC(=O)O)C(=O)O; NMeL = CN[C@@H](CC(C)C)C(=O)O; Morpholide = C1CN(*)CCO1; NMeA = CN[C@@H](C)C(=O)O; Ac5c = NC1(C(=O)O)CCCC1; Aze = O=C(O)[C@@H]1CCN1; Ac4c = NC1(C(=O)O)CCC1; Sar = CNCC(=O)O
# Key:
# [1] = molecular target: GDP-bound NRAS wild-type protein (Homo sapiens, UniProt P01111); assay: Binding to NRAS by surface plasmon resonance (SPR), Single Cycle Kinetics; details: for NRAS/KRAS (ratio of KD value with respect to NRAS to KD value with respect to KRAS): GDP-bound NRAS wild-type vs GDP-bound KRAS wild-type
# GDP-bound NRAS wild-type protein, sequence (P01111 whole entry): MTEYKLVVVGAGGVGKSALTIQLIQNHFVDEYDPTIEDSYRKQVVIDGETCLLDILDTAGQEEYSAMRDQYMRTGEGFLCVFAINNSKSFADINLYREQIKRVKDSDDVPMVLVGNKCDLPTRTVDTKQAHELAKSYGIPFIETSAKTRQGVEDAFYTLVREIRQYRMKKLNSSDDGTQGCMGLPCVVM
# [2] = molecular target: GDP-bound HRAS wild-type protein (Homo sapiens, UniProt P01112); assay: Binding to HRAS by surface plasmon resonance (SPR), Single Cycle Kinetics; details: for HRAS/KRAS (ratio of KD value with respect to HRAS to KD value with respect to KRAS): GDP-bound HRAS wild-type vs GDP-bound KRAS wild-type
# GDP-bound HRAS wild-type protein, sequence (P01112 whole entry): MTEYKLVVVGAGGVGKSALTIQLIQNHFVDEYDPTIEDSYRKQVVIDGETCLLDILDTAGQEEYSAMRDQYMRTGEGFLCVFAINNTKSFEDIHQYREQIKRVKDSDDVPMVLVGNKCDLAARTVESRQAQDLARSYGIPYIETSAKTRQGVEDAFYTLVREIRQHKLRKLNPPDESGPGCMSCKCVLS
smiles,measurement,setting,value
CC[C@H](C)[C@@H]1NC(=O)[C@H](COC)N(C)C(=O)C[C@@H](C(=O)N2CCOCC2)N(C)C(=O)[C@H](C2CCCC2)N(C)C(=O)C2(CCC2)NC(=O)[C@@H]2CCN2C(=O)[C@H](CCc2cc(F)c(C(F)(F)F)c(F)c2)NC(=O)CN(C)C(=O)[C@H](Cc2ccc(C(F)(F)F)cc2)N2CCCCC[C@@H](C2=O)N(C)C(=O)CN(C)C1=O [PP0840],NRAS/KRAS (ratio of KD value with respect to NRAS to KD value with respect to KRAS),[1]; SPR,B (a compound having 3 or more and less than 10 is denoted as B)
same,HRAS/KRAS (ratio of KD value with respect to HRAS to KD value with respect to KRAS),[2]; SPR,B (a compound having 3 or more and less than 10 is denoted as B)
CC[C@H](C)[C@@H]1NC(=O)[C@H](CC(C)C)N(C)C(=O)C[C@@H](C(=O)N2CCOCC2)N(CC)C(=O)[C@H](C2CCCC2)N(C)C(=O)C2(CCCC2)NC(=O)[C@@H]2CCCN2C(=O)[C@H](CCc2cc(F)c(C(F)(F)F)c(F)c2)NC(=O)CN(C)C(=O)[C@H](Cc2ccc(C(F)(F)F)cc2)N2CCCCC[C@@H](C2=O)N(C)C(=O)CN(C)C1=O [PP0477],NRAS/KRAS (ratio of KD value with respect to GDP-bound NRAS wild-type protein to KD value with respect to KRAS),[1]; SPR,A (a compound having 10 or more and less than 20 is denoted as A)
same,HRAS/KRAS (ratio of KD value with respect to GDP-bound HRAS wild-type protein to KD value with respect to KRAS),[2]; SPR,A (a compound having 10 or more and less than 20 is denoted as A)
CCCN1C(=O)[C@@H]2CCN2C(=O)CN(C)C(=O)[C@H]([C@@H](C)CC)NC(=O)[C@H](CC(C)C)N(C)C(=O)C[C@@H](C(=O)N(C)C)N(C)C(=O)[C@H](C2CCCC2)N(C)C(=O)C2(CCC2)NC(=O)[C@@H]2CCCN2C(=O)[C@H](CCc2ccc(C(F)(F)F)c(Cl)c2)NC(=O)CN(C)C(=O)[C@@H]1Cc1ccc(C(F)(F)F)cc1 [PP0441] ([NMeL]I[Sar][Aze][NPrPhe(4-CF3)][Sar][hPhe(3-Cl-4-CF3)]P[Ac4c][NMeGly(cPent)][NMeD]-NMe2; lactam N-11),NRAS/KRAS (ratio of KD value with respect to GDP-bound NRAS wild-type protein to KD value with respect to KRAS),[1]; SPR,C (A compound having a KD ratio of 0.1 or more and less than 3 is denoted as C)
same,HRAS/KRAS (ratio of KD value with respect to GDP-bound HRAS wild-type protein to KD value with respect to KRAS),[2]; SPR,C (A compound having a KD ratio of 0.1 or more and less than 3 is denoted as C)
CC[C@H](C)[C@@H]1NC(=O)[C@H](CC(C)C)N(C)C(=O)C[C@@H](C(=O)N2CCOCC2)N(C)C(=O)[C@H](C2CCCC2)N(C)C(=O)C2(CCCC2)NC(=O)[C@@H]2CCCN2C(=O)[C@H](CCc2ccc(C(F)(F)F)c(Cl)c2)NC(=O)CN(C)C(=O)[C@H](Cc2ccc(C)cc2)N2CCCCC[C@@H](C2=O)N(C)C(=O)CN(C)C1=O [PP0317],NRAS/KRAS (ratio of KD for GDP-bound NRAS wild-type to KD for KRAS),[1]; SPR,B (a compound having 3 or more and less than 10 is denoted as B)
same,HRAS/KRAS (ratio of KD for GDP-bound HRAS wild-type to KD for KRAS),[2]; SPR,B (a compound having 3 or more and less than 10 is denoted as B)
CCO[C@@H]1C[C@H]2C(=O)NC3(CCC3)C(=O)N(C)[C@@H](C3CCCC3)C(=O)N(C)[C@H](C(=O)N(C)C)CC(=O)N(C)[C@@H](CC)C(=O)N[C@@H]([C@@H](C)CC)C(=O)N(C)CC(=O)N(C)[C@H]3CCCCCN(C3=O)[C@@H](Cc3ccc(F)cc3OC)C(=O)N(C)CC(=O)N[C@@H](CCc3cc(F)c(C(F)(F)F)c(F)c3)C(=O)N2C1 [PP0914],NRAS/KRAS (ratio of KD value with respect to NRAS to KD value with respect to KRAS),[1]; SPR,B (a compound having 3 or more and less than 10 is denoted as B)
same,HRAS/KRAS (ratio of KD value with respect to HRAS to KD value with respect to KRAS),[2]; SPR,B (a compound having 3 or more and less than 10 is denoted as B)
CCCN1C(=O)[C@@H]2CCN2C(=O)[C@H](C)N(C)C(=O)[C@H]([C@@H](C)CC)NC(=O)[C@H](CC(C)C)N(C)C(=O)C[C@@H](C(=O)N2CCOCC2)N(C)C(=O)[C@H](C2CCCC2)N(C)C(=O)C2(CCCC2)NC(=O)CN(C)C(=O)[C@H](CCc2ccc(C(F)(F)F)c(Cl)c2)NC(=O)CN(C)C(=O)[C@@H]1Cc1ccc(C(F)(F)F)cc1 [PP0287] ([NMeL]I[NMeA][Aze][NPrPhe(4-CF3)][Sar][hPhe(3-Cl-4-CF3)][Sar][Ac5c][NMeGly(cPent)][NMeD]-Morpholide; lactam N-11),NRAS/KRAS (ratio of KD for GDP-bound NRAS wild-type to KD for KRAS),[1]; SPR,C (A compound having a KD ratio of 0.1 or more and less than 3 is denoted as C)
same,HRAS/KRAS (ratio of KD for GDP-bound HRAS wild-type to KD for KRAS),[2]; SPR,C (A compound having a KD ratio of 0.1 or more and less than 3 is denoted as C)
CCC[C@H]1C(=O)N[C@@H](CC(C)C)C(=O)N(CC)CC(=O)N(C)[C@H]2C/C=C\CCN(C2=O)[C@@H](Cc2ccc(C)cc2)C(=O)N(C)CC(=O)N[C@@H](CCc2ccc(C(F)(F)F)c(OC)c2)C(=O)N2C[C@H](OCC)C[C@H]2C(=O)NC2(CCC2)C(=O)N(C)[C@@H](C2CCCC2)C(=O)N(C)[C@H](C(=O)N(C)C)CC(=O)N1C [PP2540],NRAS/KRAS (ratio of KD value with respect to GDP-bound NRAS wild-type protein to KD value with respect to KRAS),[1]; class symbols,A (a compound having 10 or more and less than 20 is denoted as A)
same,HRAS/KRAS (ratio of KD value with respect to GDP-bound HRAS wild-type protein to KD value with respect to KRAS),[2]; class symbols,B (a compound having 3 or more and less than 10 is denoted as B)
